This note sets out measurements from patent US10106515B2, “1-(cyclopent-2-en-1-yl)-3-(2-hydroxy-3-(arylsulfonyl)phenyl)urea derivatives as CXCR2 inhibitors” (GLAXOSMITHKLINE INTELLECTUAL PROPERTY DEVELOPMENT LIMITED, priority 2014, dated 2018).

Each structure is given as a SMILES string. Bounds are passed on as bounds.

The target in this assay is T1, recombinant human CXCR2 (Homo sapiens, UniProt P25025).
T1 construct: TEV protease site; Gal4-VP16 transcription factor
T1 sequence (P25025 1-360): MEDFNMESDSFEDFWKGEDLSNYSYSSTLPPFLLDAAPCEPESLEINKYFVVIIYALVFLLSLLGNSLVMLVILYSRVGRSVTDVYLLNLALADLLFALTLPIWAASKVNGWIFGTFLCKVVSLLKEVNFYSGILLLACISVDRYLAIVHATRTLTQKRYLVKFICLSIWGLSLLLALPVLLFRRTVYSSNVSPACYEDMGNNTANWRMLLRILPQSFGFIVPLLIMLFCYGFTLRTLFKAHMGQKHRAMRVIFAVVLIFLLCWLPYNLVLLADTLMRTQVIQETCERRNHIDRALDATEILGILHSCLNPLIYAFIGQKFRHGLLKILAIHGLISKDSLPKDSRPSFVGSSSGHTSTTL
Briefly: CXCR2 Tango assay. Format: cell-based. The settings on record: mean pIC50 of multiple test results; stimulated with 80 nM hCXCL1; reporter gene blue/green emission ratio; read-out: pIC50 (CXCR2 Tango assay) (converted). A digest of the protocol:
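Mean pIC50 comes from sigmoidal fits of the blue/green (460/530 nm) CCF4-AM ratio, normalized between hCXCL1-stimulated and DMSO controls. Compounds in 10-point dose response were incubated overnight at 37 °C with recombinant human CXCR2 Tango cells (~10,000/well) and 80 nM hCXCL1, with reporter read-out via arrestin-TEV release of Gal4-VP16.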
Background: In a reporter assay the amount or activity of a reporter protein is the signal.

In the case of `CC1=CCC[C@H]1NC(=O)Nc1ccc(Cl)c(S(=O)(=O)[C@@]2(C)CCOC2)c1O` [Compound 195, 1-(4-chloro-2-hydroxy-3-(((S)-3-methyltetrahydrofuran-3-yl)sulfonyl)phenyl)-3-((R)-2-methylcyclopent-2-en-1-yl)urea], the IC50 is not above 10 nM.
